For test [1], the system named is RT-112 (minimum-invasive bladder) cancer cells. Put plainly: MTT cytotoxicity assay, RT-112. It counts as cell-based, human. The note with it: RT-112 cells, 72 h, ± standard error, read-out: Growth Inhibition Concentration, GI50. The protocol:
(§1) The Schiff bases and their organotin(IV) compounds were screened for in vitro cytotoxicity against a panel of 12 cancer cell lines: EJ-28 (muscle invasive bladder), RT-112 (minimum-invasive bladder), HT29 (colon), U87 and SJ-G2 (glioblastoma), MCF-7 (breast), A2780 (ovarian), H460 (lung), A431 (skin), DU145 (prostate), BE2-C (neuroblastoma), MIA (pancreatic) and one normal breast cell line (MCF-10A) using the MTT metabolic assay (Figure 6). After 72 h of incubation, a dose-dependent […] effect towards the cancer cell lines was measured at very low micromolar (µM) concentrations of the compounds. The growth inhibition concentration of the Schiff bases and their organotin(IV) compounds required to inhibit 50% cell proliferation relative to the cells that were treated with DMSO (control) are given in Table 2. The stability of these compounds was assessed in DMSO as well as in a mixture of DMSO-H2O. The absorbance obtained from UV-vis spectroscopy analysis was monitored for 72 h, and an unchanged pattern in the spectra was indicative that the compounds were stable in both the solvent systems tested.
(§2) The inhibitory effect of the synthesised compounds on the growth of bladder (EJ-28 and RT-112) cancer cells was evaluated by MTT assay. […] RT-112 and EJ-28, human bladder cancer cell lines used in this study (ATCC, Manassas, VA, USA) were cultured in RPMI-1640 (High glucose) medium supplemented with 10% fetal bovine serum containing 1% penicillin. The cells were cultured at 37 °C in a humidified atmosphere of 5% CO2 in air. Cells were seeded in 96-well plates at 6000 cells per well for 24 h, then they were treated with different concentrations of compounds for 72 h. The medium was subsequently removed and the wells were washed with 200 µL of phosphate buffer saline. Aliquots of 20 µL of 3-(4,5-dimethylthiazol-2-yl)-2,5-diphenyltetrazolium bromide (MTT) was added to each well and incubated for 4 h at 37 °C. Aliquots of 200 µL of media was then removed from each well and 200 µL of DMSO was added. Optical density (OD) was measured using an ELISA plate reader at 570 nm. Control wells (100% viability), containing media and DMSO, were included in all the experiments. All data points represented an average of triplicate assays. Cytotoxicity was expressed as CD50, i.e., the concentration that reduced the absorbance of treated cells by 50% with reference to the control (untreated cells).
For orientation: Tetrazolium dyes change colour on reduction, which living cells bring about.

Test [2] has as its system BE2-C (neuroblastoma) cancer cells. Put plainly: MTT growth inhibition assay, BE2-C. It counts as cell-based. The note with it: 72 h, ± standard error, read-out: Growth Inhibition Concentration, GI50. The protocol:
as §1
(§3) For HT29 (colon), U87 and SJ-G2 (glioblastoma), MCF-7 (breast), A2780 (ovarian), H460 (lung), A431 (skin), Du145 (prostate), BE2-C (neuroblastoma), MIA (pancreas) cell lines and one normal breast cell line, MCF-10A (normal breast), the MTT assays were performed using the following method:
(§4) Stock solutions were prepared as follows and stored at −20 °C: Trial compounds were stored as 10 mM solutions in DMSO. All cell lines were cultured in a humidified atmosphere 5% CO2 at 37 °C. The cancer cell lines were maintained in Dulbecco’s modified Eagle’s medium (DMEM) (Trace Biosciences) supplemented with 10% foetal bovine serum, 10 mM sodium bicarbonate, penicillin (100 IU/mL), streptomycin (100 μg/mL) and glutamine (4 mM). The normal cell line, MCF-10A was cultured in DMEM:F12 (1:1) cell culture media, 5% heat inactivated horse serum, supplemented with penicillin (50 IU/mL), streptomycin (50 μg/mL), 20mM Hepes, L-glutamine (2 mM), epidermal growth factor (20 ng/mL), hydrocortisone (500 ng/mL), cholera toxin (100 ng/mL) and insulin (10 μg/mL).
(§5) Cells in logarithmic growth were transferred to 96-well plates. Cytotoxicity was determined by plating cells in duplicate in 100 μL medium at a density of 2500–4000 cells/well. On day 0 (24 h after plating), when the cells were in logarithmic growth, 100 μL medium, with or without the test agent, was added to each well. After 72 h drug exposure, growth inhibitory effects were evaluated using the MTT (3-[4,5-dimethylthiazol-2-yl]-2,5-diphenyltetrazolium bromide) assay and absorbance read at 540 nm. Percentage growth inhibition was determined at a fixed drug concentration of 25 μM. A value of 100% was indicative of complete cell growth inhibition. Those analogues showing appreciable percentage growth inhibition underwent further dose-response analysis allowing for the calculation of a GI50 value. This value is the drug concentration at which cell growth is 50% inhibited based on the difference between the optical density values on day 0 and those at the end of drug exposure.

Test [3] deals with HT29 (colon) cancer cells. Put plainly: MTT growth inhibition assay, HT29. To be noted: 72 h, ± standard error, read-out: Growth Inhibition Concentration, GI50. The test is classed as cell-based. The procedure:
as §1, §3, §4, §5

For test [4], the system named is A2780 (ovarian) cancer cells. Put plainly: MTT growth inhibition assay, A2780. The test is classed as cell-based. To be noted: 72 h, ± standard error, read-out: Growth Inhibition Concentration, GI50. The protocol: as §1, §3, §4, §5
Test [5] concerns EJ-28 (muscle invasive bladder) cancer cells. Put plainly: MTT cytotoxicity assay, EJ-28. It counts as cell-based, human. To be noted: EJ-28 cells, 72 h, ± standard error, read-out: Growth Inhibition Concentration, GI50. The procedure:
as §1, §2

The subject of a further test is A431 (skin) cancer cells. Put plainly: MTT growth inhibition assay, A431. It counts as cell-based. The note with it: 72 h, ± standard error, read-out: Growth Inhibition Concentration, GI50. The protocol:
as §1, §3, §4, §5

In the case of “Diphenyltin(IV) [Ph2Sn(S2MoVa), Diphenyltin(IV) [S-2-Methybenzyl-β-N-(2-hydroxy-3-methoxybenzylmethylene) dithiocarbazate]]”, the GI50 in test [1] amounted to 310 ± 50 nM; in test [2], 470 ± 50 nM; in test [3], 1800 ± 130 nM; in test [4], 230 ± 10 nM; in test [5] it was 350 ± 50 nM; in the test on A431 (skin) cancer cells, 2100 ± 90 nM.
On to “Diphenyltin(IV) [Ph2Sn(S4MoVa), Diphenyltin(IV) [S-4-Methybenzyl-β-N-(2-hydroxy-3-methoxybenzylmethylene) dithiocarbazate]]”, for which the GI50 is 1700 ± 490 nM in test [1]; 530 ± 10 nM in test [2]; 870 ± 220 nM in test [3]; 350 ± 70 nM in test [4]; 3100 ± 370 nM in test [5]; 1400 ± 380 nM in the test with A431 (skin) cancer cells.

For the origin of these results see article PMC6413231, “o-Vanillin Derived Schiff Bases and Their Organotin(IV) Compounds: Synthesis, Structural Characterisation, In-Silico Studies and Cytotoxicity” (International Journal of Molecular Sciences, 2019).
